Results: the CheMixHub viscosity set

Assay: xn = mol fraction of the nth substance listed

CCCC(=O)OCC(COC(=O)CCC)OC(=O)CCC + CCCCCCO
viscosity [mPa·s], 101.33 kPa
Conditions	x1 = 0.1	x1 = 0.2	x1 = 0.3	x1 = 0.4	x1 = 0.5	x1 = 0.6	x1 = 0.7	x1 = 0.8	x1 = 0.9
298 K	4	4.09	4.3	4.65	5.05	5.56	6.15	6.84	7.68
303 K	3.47	3.54	3.72	4	4.36	4.8	5.27	5.86	6.54
308 K	3.02	3.08	3.26	3.49	3.79	4.15	4.57	5.07	5.63
313 K	2.65	2.71	2.85	3.07	3.33	3.64	4	4.42	4.9

CCC(=O)OCCN1CCNCC1 + CCO
Conditions	viscosity [mPa·s]
293.15 K, 100 kPa, x1 = 0.1216	37.45

CCCCN + CCCCCCO
viscosity [mPa·s], 101.33 kPa
Conditions	303.15 K	313.15 K	323.15 K
x1 = 0.099	3.27	2.673	–
x1 = 0.1002	3.164	2.411	1.888
x1 = 0.2005	2.593	2.026	1.608
x1 = 0.2079	2.728	2.202	–
x1 = 0.2888	2.334	1.906	–
x1 = 0.3001	2.082	1.642	1.322
x1 = 0.4004	1.701	1.356	1.113
x1 = 0.414	1.79	1.47	–
x1 = 0.5002	1.371	1.12	0.923
x1 = 0.5223	1.39	1.161	–
x1 = 0.5987	1.155	0.9887	–
x1 = 0.6001	1.105	0.909	0.765
x1 = 0.6999	0.906	0.759	0.648
x1 = 0.7197	0.8668	0.754	–
x1 = 0.8001	0.729	0.622	0.537
x1 = 0.8124	0.6995	0.611	–
x1 = 0.8998	0.573	0.494	0.433
x1 = 0.9046	0.5625	0.4944	–

CCCC(=O)OCC + CCCCCCC
viscosity [mPa·s], 101.3 kPa
Conditions	308.15 K	318.15 K
x1 = 0.0502	0.356	0.325
x1 = 0.1025	0.36	0.33
x1 = 0.2204	0.373	0.344
x1 = 0.2988	0.383	0.354
x1 = 0.3991	0.398	0.371
x1 = 0.5188	0.421	0.393
x1 = 0.6073	0.442	0.415
x1 = 0.6954	0.467	0.436
x1 = 0.8003	0.499	0.469
x1 = 0.9011	0.544	0.518
x1 = 0.9513	0.57	0.539

CCCCN + Cc1ccccc1C
303.15 K, 101 kPa
Conditions	viscosity [mPa·s]
x1 = 0.0811	0.648
x1 = 0.1509	0.624
x1 = 0.2681	0.587
x1 = 0.3574	0.56
x1 = 0.4598	0.535
x1 = 0.546	0.518
x1 = 0.6419	0.499
x1 = 0.7306	0.484
x1 = 0.8169	0.469
x1 = 0.8974	0.457
x1 = 0.9503	0.45
